Data as given in patent US8404646B2, “Methods for preventing or treating mitochondrial permeability transition” (Cornell Research Foundation, Inc., priority 2003, dated 2013).
Non-standard residues stand in square brackets, D forms with d. Residues, ends and D or L forms follow the SMILES beside them. *: point of attachment. Dansyl = CN(C)c1cccc2c(S(=O)(=O)*)cccc12; Dmt = Cc1cc(O)cc(C)c1C[C@H](N)C(=O)O; Dap = NC[C@H](N)C(=O)O

Experiments:
[1] = Body weight and heart rate during the infarction/reperfusion experiment; format: in vivo, rat
Method: Adult male […] rats (F344 strain, National Institute of Aging, maintained by Harian Sprague-Dawley Inc.), weighting between 285 and 425 gm, were used. Twenty-four rats (n=8/group) were randomly assigned to one of three groups: (1) Control group was given 0.4 ml of saline as an intra-peritoneal (IP) injection 30 minutes before the ligation of left anterior descending coronary artery, followed by same IP dose injection 5 minutes before reperfusion; (2) SS-31 group was treated with SS-31 (3 mg/kg dissolved in 0.4 ml of saline) as an IP injection 30 minutes before the ligation followed by same IP dose injection as maintenance 5 minutes before reperfusion; and (3) SS-20 group was treated with SS-20 (3 mg/kg dissolved in 0.4 ml of saline) as an IP injection 30 minutes before the ligation followed by same dose IP injection as maintenance just 5 minutes before reperfusion. Also, Sham-operated rats (n=3) were used to account for possible effects related to the surgical protocol. All procedures were performed in a blinded manner, with the groups assigned letters and their identities unknown to the operators. Likewise, the two independent investigators analyzing the data were blind to the treatment assignments.
After anesthesia with ketamine (90 mg/kg IP) and xylazine (4 mg/kg IP), a tracheotomy was performed, and the rat was intubated with polyethylene tube and ventilated (Harvard Rodent Ventilator model 683) with room air and a tidal volume of 0.65 ml/100 gm of body weight at 90 breaths per minute. Body temperature was maintained at 37° C. by using a heated operating table. The internal jugular vein was surgically exposed and a polyethylene tube was inserted for Evans blue dye solution injection. Peripheral limb electrodes were inserted subcutaneously and electrocardiogram was monitored throughout the procedure.
An ECG was recorded continuously from a standard lead II (AC AMP 700) inserted into the limbs of all rats. The ECG was printed at 25 mm/second. The cardiac arrhythmias were monitored and assessed in accordance with the Lambeth Convention. The assessment was performed in a blinded manner using the original paper recordings. A validated score was used to quantify the severity of cardiac arrhythmias. The score consisted of six types: 0, no ventricular extrasystoles (VES), ventricular tachycardia (VT) or ventricular fibrillation (VF); 1=VES; 2=one to five episodes of VT (more than four coupled VES); 3=more than five episodes of VT and/or one VF; 4=two to five episodes of VF; 5=more than five episodes of VF.
All values are expressed as mean±standard error of mean (S.E.M.). Statistical analyses were performed using SPSS version 10. Differences among groups in body weight, heart rate, arrhythmia, area at risk as a percentage of the left ventricle, and area of infarction as a percentage of the area at risk were analyzed using ANOVA. If significant differences were detected, comparisons between the control group and the 2 treatment groups were conducted using the Mann-Whitney U-test. A two-tailed p<0.05 was regarded as significant.

Caco-2 cells = assay: Confocal laser scanning microscopy of fluorescent analogs (uptake, subcellular distribution); format: cell-based, human; details: for subcellular distribution of fluorescence: Caco-2, CLSM
Method: The uptake of [Dmt^1]DALDA into Caco-2 cells was confirmed by confocal laser scanning microscopy (CLSM) using a fluorescent analog of [Dmt^1]DALDA (Dmt-D-Arg-Phe-dnsDap-NH2; where dnsDap=β-dansyl-1-α,β-diaminopropionic acid). Cells were grown as described above and were plated on (35 mm) glass bottom dishes (MatTek Corp., Ashland, Mass.) for 2 days. The medium was then removed and cells were incubated with 1 ml of HBSS containing 0.1 μM to 1.0 μM of the fluorescent peptide analog at 37° C. for 1 h. Cells were then washed three times with ice-cold HBSS and covered with 200 μl of PBS, and microscopy was performed within 10 min at room temperature using a Nikon confocal laser scanning microscope with a C-Apochromat 63×/1.2 W corr objective. Excitation was performed at 340 nm by means of a UV laser, and emission was measured at 520 nm. For optical sectioning in z-direction, 5-10 frames with 2.0 μm were made.
To examine the subcellular distribution of [Dmt^1]DALDA, the fluorescent analog, [Dmt^1, AtnDap^4]DALDA (Dmt-D-Arg-Phe-atnDap-NH2; where atn=β-anthraniloyl-1-α,β-diamino-propionic acid), was prepared. The analog contained β-anthraniloyl-1-α,β-diaminopropionic acid in place of the lysine reside at position 4. The cells were grown as described in Example 1 and were plated on (35 mm) glass bottom dishes (MatTek Corp., Ashland, Mass.) for 2 days. The medium was then removed and cells were incubated with 1 ml of HBSS containing 0.1 μM of [Dmt^1, AtnDap^4]DALDA at 37° C. for 15 min to 1 h.
Cells were also incubated with tetramethylrhodamine methyl ester (TMRM, 25 nM), a dye for staining mitochondria, for 15 min at 37° C. Cells were then washed three times with ice-cold HBSS and covered with 200 μl of PBS, and microscopy was performed within 10 min at room temperature using a Nikon confocal laser scanning microscope with a C-Apochromat 63×/1.2 W corr objective.
For [Dmt^1, AtnDap^4]DALDA, excitation was performed at 350 nm by means of a UV laser, and emission was measured at 520 nm. For TMRM, excitation was performed at 536 nm, and emission was measured at 560 nm.

[2] = tested on: isolated mouse liver mitochondria; assay: Uptake into isolated mitochondria (fluorescence quenching, radioactivity in pellet); format: in vitro ADME
Method: (FIG. 1A) Mitochondrial uptake of SS-19 was determined using fluorescence spectrophotometry (ex/em=320/420 nm). […] Pretreatment of mitochondria with FCCP (1.5 μM) reduced quenching by <20% (black line). […] Uptake was stopped by centrifugation (16000×g) for 5 min at 4° C., and radioactivity determined in the pellet. […] Data are shown as mean±s.e.; n=3. *, P<0.05 by Student's t-test. […] Black line, TMRM; red line, SS-19.
To isolate mitochondria from mouse liver, mice were sacrificed by decapitation. The liver was removed and rapidly placed into chilled liver homogenization medium. The liver was finely minced using scissors and then homogenized by hand using a glass homogenizer.
The homogenate was centrifuged for 10 min at 1000×g at 4° C. The supernatant was aspirated and transferred to polycarbonate tubes and centrifuged again for 10 min. at 3000×g, 4° C. The resulting supernatant was removed, and the fatty lipids on the side-wall of the tube were carefully wiped off.
The pellet was resuspended in liver homogenate medium and the homogenization repeated twice. The final purified mitochondrial pellet was resuspended in medium. Protein concentration in the mitochondrial preparation was determined by the Bradford procedure.
Approximately 1.5 mg mitochondria in 400 μl buffer was incubated with [^3H][Dmt^1]DALDA for 5-30 min at 37° C. The mitochondria were then centrifuged down and the amount of radioactivity determined in the mitochondrial fraction and buffer fraction. […] Thus [Dmt^1]DALDA is concentrated in mitochondria.
Thus uptake of [Dmt^1, AtnDap^4]DALDA was not potential-dependent.
To confirm that the mitochondrial targeting was not an artifact of the fluorophore, we also examined mitochondrial uptake of [^3H][Dmt^1]DALDA. Isolated mitochondria were incubated with [^3H][Dmt^1]DALDA and radioactivity determined in the mitochondrial pellet and supernatant.
We next examined the effect of mitochondrial swelling on the accumulation of [Dmt^1, AtnDap^4]DALDA in mitochondria by using alamethicin to induce swelling and rupture of the outer membrane. […] Thus, [Dmt^1]DALDA is associated with mitochondrial membranes.

Compound	Heart Rate Baseline ([1]; Baseline)	Heart Rate Ischemia ([1]; first column)	Heart Rate Ischemia ([1]; second column)	Heart Rate Open chest ([1]; Open chest)	Heart Rate Reperfusion ([1]; first column)	Heart Rate Reperfusion ([1]; second column)	uptake of fluorescent peptide into Caco-2 cells (CLSM) (Caco-2 cells; 0.1 μM, 1 h, 37° C.)	subcellular distribution of fluorescence (Caco-2 cells)	incubation time after which uptake into Caco-2 cells was shown (Caco-2 cells; 0.1 μM, 37° C.) [min]	distribution to mitochondria (overlap with TMRM) (Caco-2 cells; Caco-2, TMRM 25 nM)	reduction of uptake (fluorescence quenching) by FCCP pretreatment ([2]; FCCP 1.5 μM, mitochondria 0.35 mg/ml) [%]	effect of alamethicin-induced mitochondrial swelling on uptake [2]	effect of alamethicin-induced mitochondrial swelling on uptake ([2]; listed as [Dmt^1, AtnDap^4]DALDA)	uptake on addition of mitochondria (fluorescence) ([2]; ex/em 320/420 nm)
N=C(N)NCCC[C@@H](NC(=O)[C@@H](N)Cc1ccccc1)C(=O)N[C@@H](Cc1ccccc1)C(=O)N[C@@H](CCCCN)C(N)=O [SS-20, Phe-D-Arg-Phe-Lys-NH2] (H-F[dR]FK-NH2; N-terminus assumed)	255 ± 5	191 ± 17	184 ± 15	211 ± 10	182 ± 16	183 ± 12								
Cc1cc(O)cc(C)c1C[C@H](N)C(=O)N[C@H](CCCNC(=N)N)C(=O)N[C@@H](Cc1ccccc1)C(=O)N[C@@H](CNS(=O)(=O)c1cccc2c(N(C)C)cccc12)C(N)=O [[Dmt^1,DnsDap^4]DALDA, Dmt-D-Arg-Phe-dnsDap-NH2] (H-[Dmt][dR]F[Dap](Dansyl)-NH2; N-terminus assumed)							confirmed the uptake	diffuse throughout the cytoplasm but was completely excluded from the nucleus						
Dmt-D-Arg-Phe-atnDap-NH2 [SS-19]								completely excluded from the nucleus	15	demonstrated by the overlap	< 20	retained to a large extent	only partially reversed	immediate quenching
